Active and inactive are the calls of the source.
Key:
[1] = viability loss in THP-1 monocytes – THP-1 cells, cytotoxicity control for Vif-APOBEC3G degradation inhibitor project, dose response (AID 1117359); type: functional; conditions: THP-1
[2] = target: T1, Short transient receptor potential channel 4 (Mus musculus, UniProt Q9QUQ5); assay: block of DAMGO-driven TRPC4 calcium entry – cell-based, HEK293 TRPC4/mu-opioid, Fluo-4 calcium, dose response (AID 434942); type: functional;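 note: potency of inhibitors blocking the TRPC4 calcium response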
T1 sequence (Q9QUQ5 whole entry): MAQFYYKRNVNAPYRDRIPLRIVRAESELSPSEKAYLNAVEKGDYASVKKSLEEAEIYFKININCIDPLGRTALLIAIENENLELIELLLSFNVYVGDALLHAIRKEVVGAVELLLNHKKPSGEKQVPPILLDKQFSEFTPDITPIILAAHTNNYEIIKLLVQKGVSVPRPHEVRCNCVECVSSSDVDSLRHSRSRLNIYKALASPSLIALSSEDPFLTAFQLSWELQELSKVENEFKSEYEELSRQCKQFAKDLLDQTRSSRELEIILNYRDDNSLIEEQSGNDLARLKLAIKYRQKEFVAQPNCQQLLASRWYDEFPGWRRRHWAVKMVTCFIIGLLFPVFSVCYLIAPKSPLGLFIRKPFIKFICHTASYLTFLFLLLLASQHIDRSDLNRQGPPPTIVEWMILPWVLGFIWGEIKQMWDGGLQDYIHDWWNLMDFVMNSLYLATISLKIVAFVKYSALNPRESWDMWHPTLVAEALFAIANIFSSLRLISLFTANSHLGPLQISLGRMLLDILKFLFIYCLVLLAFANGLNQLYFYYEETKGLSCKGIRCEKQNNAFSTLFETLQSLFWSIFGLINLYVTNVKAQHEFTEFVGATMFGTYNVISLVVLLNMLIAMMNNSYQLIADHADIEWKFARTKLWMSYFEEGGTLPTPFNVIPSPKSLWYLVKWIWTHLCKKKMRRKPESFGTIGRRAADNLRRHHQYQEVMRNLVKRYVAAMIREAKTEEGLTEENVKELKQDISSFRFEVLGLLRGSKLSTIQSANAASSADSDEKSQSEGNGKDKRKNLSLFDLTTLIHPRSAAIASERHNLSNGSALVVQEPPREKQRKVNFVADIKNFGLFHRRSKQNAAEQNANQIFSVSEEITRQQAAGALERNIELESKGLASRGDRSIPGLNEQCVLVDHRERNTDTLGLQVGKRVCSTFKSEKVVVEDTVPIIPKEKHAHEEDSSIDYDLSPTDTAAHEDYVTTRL

[3] = THP-1 cell cytotoxicity, dose response, cytotoxicity control for non-replicating M. tuberculosis project (AID 489025); type: functional
[4] = Trypanosoma cruzi growth suppression in host cells – NIH3T3 host cells, beta-gal luminescence, confirmation (AID 2044); type: functional, cell-based;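 note: intracellular parasites grown in NIH/3T3 mouse fibroblasts as host cells; luminescent beta-galactosidase reporter signal from transgenic T. cruzi replicating inside host cells; inhibitors lower the luminescence signal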
cells = type: functional
[5] = NIH3T3 cell viability loss – ATP luminescence, mouse fibroblasts, counter-screen, dose response (AID 2010); type: functional, cell-based;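 note: cells exposed to compound for about 90 hours before reading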
[6] = Vero E6 cell cytotoxicity, dose response, cytotoxicity control for non-replicating M. tuberculosis project, secondary assay (AID 492998); type: functional, VeroE6; conditions: Vero C1008
Cytochrome P450 2C9 = Cytochrome P450 2C9 (Homo sapiens, UniProt P11712)
Cytochrome P450 2D6 = Cytochrome P450 2D6 (Homo sapiens, UniProt P10635);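 note: CYP2D6 member of a cytochrome P450 panel assay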
Estrogen receptor = target: T2, Estrogen receptor (Homo sapiens, UniProt P03372);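 note: potency for inhibiting coactivator peptide recruitment to the receptor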
T2 sequence (P03372 whole entry): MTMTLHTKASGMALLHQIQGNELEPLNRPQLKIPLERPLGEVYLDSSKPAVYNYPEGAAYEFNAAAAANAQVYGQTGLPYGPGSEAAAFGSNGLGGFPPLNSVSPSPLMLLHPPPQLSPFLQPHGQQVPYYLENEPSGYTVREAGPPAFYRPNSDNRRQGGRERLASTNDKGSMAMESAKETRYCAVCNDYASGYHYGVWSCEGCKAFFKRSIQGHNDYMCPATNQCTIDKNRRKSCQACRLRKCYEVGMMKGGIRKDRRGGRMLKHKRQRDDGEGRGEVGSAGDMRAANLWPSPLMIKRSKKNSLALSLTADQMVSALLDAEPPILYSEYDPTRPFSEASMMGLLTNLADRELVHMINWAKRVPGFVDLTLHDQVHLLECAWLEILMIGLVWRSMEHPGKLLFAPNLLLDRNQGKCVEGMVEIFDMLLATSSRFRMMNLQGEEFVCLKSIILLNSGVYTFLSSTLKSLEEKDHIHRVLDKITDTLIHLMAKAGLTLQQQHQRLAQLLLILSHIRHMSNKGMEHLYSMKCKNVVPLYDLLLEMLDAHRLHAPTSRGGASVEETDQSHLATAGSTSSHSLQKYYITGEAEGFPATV

[7] = target: Nucleotide-binding oligomerization domain-containing protein 2 (Homo sapiens, UniProt Q9HC29); assay: inhibition of NOD2-driven NF-kB reporter – cell-based, luminescence, uHTS, HEK293 (AID 1566); type: functional
HEK293 [8] = assay: inhibition of NOD1-driven NF-kB reporter – cell-based, luminescence, uHTS, primary screen (AID 1578); type: functional; conditions: Homo sapiens
HEK293 [9] = assay: NOD2 signaling inhibitors in MDP-stimulated cells, cell-based, uHTS, luminescence (AID 2001); type: functional; conditions: Homo sapiens
HEK293 [10] = assay: cells; type: functional, cell-based; conditions: Homo sapiens
HEK293 [11] = assay: cells; type: functional, cell-based; conditions: Homo sapiens; remark: listed apart in the source
HEK293 [12] = assay: cells; type: functional, cell-based; conditions: Homo sapiens; remark: listed apart in the source
[13] = Dd2 malaria parasite growth inhibition potency – SYBR Green, dry powder samples, dose response (AID 1159566); type: functional, cell-based;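 note: potency for growth inhibition with lower SYBR green DNA signal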
[14] = toxicity to human hepatoma HepG2 cells – cell-based, cherry-picked samples, cytotoxicity control, dose response (AID 1159577); type: functional
[15] = toxicity to human HepG2 hepatoma cells – cell-based, plate reader, dry powder samples, cytotoxicity control, dose response (AID 1159569); type: functional;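 note: inhibitor potency with signal falling toward the positive control level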
[16] = growth inhibition of PfATP4-mutant resistant parasites – NITD609-resistant line, SYBR Green, dry powder, dose response (AID 1159571); type: functional, cell-based;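 note: parasites synchronized at ring stage by sorbitol before testing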
[17] = P. falciparum Dd2 growth inhibitors, dose response, SYBR Green, cherry-picked samples (AID 1159567); type: functional, cell-based
[18] = growth inhibition of yeast DHODH-expressing 3D7 parasites – SYBR Green, dry powder samples, dose response (AID 1159570); type: functional, cell-based;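 note: parasite growth measured after 72 hours of compound exposure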

Chain of Cytochrome P450 2C9 (P11712 whole entry): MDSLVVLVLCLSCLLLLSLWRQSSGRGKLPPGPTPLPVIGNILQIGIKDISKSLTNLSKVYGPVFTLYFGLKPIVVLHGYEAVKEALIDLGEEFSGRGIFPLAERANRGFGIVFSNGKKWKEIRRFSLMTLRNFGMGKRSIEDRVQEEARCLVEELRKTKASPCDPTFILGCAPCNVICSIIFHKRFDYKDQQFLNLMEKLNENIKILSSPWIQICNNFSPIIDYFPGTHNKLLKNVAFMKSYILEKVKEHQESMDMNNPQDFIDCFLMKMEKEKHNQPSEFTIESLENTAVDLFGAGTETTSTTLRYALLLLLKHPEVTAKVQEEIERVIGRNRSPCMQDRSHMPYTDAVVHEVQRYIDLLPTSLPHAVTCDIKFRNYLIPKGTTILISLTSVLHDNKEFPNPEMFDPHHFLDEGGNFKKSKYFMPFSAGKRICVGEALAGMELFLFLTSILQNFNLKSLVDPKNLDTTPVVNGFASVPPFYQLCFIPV
Chain of Cytochrome P450 2D6 (P10635 whole entry): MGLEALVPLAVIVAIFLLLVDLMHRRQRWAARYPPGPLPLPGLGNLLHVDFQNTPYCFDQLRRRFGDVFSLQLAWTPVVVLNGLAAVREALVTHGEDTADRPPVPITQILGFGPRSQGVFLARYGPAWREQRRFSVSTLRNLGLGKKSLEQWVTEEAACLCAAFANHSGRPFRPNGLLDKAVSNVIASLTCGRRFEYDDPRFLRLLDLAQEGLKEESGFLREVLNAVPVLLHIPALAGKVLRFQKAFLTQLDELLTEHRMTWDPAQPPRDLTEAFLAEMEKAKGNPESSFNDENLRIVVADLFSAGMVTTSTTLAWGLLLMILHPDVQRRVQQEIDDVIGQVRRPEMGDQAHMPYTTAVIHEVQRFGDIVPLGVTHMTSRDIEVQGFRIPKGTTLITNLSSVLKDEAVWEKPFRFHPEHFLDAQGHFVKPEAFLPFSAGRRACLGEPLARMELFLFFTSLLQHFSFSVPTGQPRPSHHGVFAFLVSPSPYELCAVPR
Chain of Nucleotide-binding oligomerization domain-containing protein 2 (Q9HC29 whole entry, the tested form may be a part): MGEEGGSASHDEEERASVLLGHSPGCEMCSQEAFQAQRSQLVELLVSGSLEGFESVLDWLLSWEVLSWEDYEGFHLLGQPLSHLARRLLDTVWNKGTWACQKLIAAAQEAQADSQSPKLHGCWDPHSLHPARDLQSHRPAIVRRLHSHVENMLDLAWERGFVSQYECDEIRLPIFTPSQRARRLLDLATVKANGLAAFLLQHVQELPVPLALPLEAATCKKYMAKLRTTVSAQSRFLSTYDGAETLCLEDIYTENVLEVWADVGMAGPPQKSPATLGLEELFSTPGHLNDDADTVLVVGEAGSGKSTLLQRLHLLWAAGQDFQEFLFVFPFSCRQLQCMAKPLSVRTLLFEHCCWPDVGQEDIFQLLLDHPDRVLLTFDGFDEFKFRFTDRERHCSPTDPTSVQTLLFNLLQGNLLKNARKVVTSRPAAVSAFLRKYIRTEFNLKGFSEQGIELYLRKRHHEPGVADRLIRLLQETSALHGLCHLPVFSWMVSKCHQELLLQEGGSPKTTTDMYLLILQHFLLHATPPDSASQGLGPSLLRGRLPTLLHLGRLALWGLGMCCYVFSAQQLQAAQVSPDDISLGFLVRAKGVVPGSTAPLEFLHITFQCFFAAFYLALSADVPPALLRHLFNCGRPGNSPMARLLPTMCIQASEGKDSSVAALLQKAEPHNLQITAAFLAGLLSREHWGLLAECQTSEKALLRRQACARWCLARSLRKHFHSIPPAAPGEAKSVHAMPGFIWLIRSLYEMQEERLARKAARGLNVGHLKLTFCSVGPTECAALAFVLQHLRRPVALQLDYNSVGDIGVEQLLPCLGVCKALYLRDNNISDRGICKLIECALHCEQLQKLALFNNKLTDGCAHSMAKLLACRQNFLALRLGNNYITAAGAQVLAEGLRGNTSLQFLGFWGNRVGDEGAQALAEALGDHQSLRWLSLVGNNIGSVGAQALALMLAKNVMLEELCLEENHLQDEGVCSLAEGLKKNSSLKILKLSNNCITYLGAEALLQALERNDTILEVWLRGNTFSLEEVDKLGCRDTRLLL

With CC(OC(=O)c1cccc(O)c1)C(=O)N(C)Cc1ccccc1 (stereo not given) the CC50 [1] was > 40 µM (active).
In the case of Cc1cccc(CCN(C(=O)c2snc(C(N)=O)c2N)C(C(=O)NCC2CCCO2)c2ccc(F)cc2)c1 (stereo not given), the EC50 [2] is reported as 2.66 µM (active).
With O=C(N/N=C/c1ccc([N+](=O)[O-])s1)c1cccnc1 the CC50 [3] was 14.9 µM (active), the EC50 [4] was 0.429 µM (active) and the IC50 (cells) was 11.2 µM (active). For the same compound, the EC50 [5] was > 60 µM (not active) and the CC50 [6] was 14.6 µM (active).
With CCN(CC)c1nc2ccccc2[nH]1.Cl the AC50 (Cytochrome P450 2C9) was “inconclusive” and the AC50 (Cytochrome P450 2D6) was 25.1 µM (inconclusive).
With Cc1ccccc1C(=O)NC(C)c1ccc2c(c1)CCCC2 (stereo not given) the AC50 (Cytochrome P450 2C9) was “inconclusive” and the AC50 (Cytochrome P450 2D6) was 15.8 µM (inconclusive).
For CC(=O)CC1(OC(C)=O)C(=O)N(C)c2ccccc21 (stereo not given), the CC50 [3] was 35.5 µM (active), the IC50 (cells) was 14.4 µM (active) and the CC50 [6] was 15.5 µM (active).
In the case of CCOC(=O)C1=C(C)C/C(=N\NC(=O)c2ccccc2O)CC1, the CC50 [3] is reported as 21.8 µM (active), the IC50 (cells) is reported as 10.8 µM (active) and the CC50 [6] is reported as 15.3 µM (active).
With COc1ccc(-n2nc(C(=O)Nc3ccc(OC)c(OC)c3)c3c4ccccc4n(C)c3c2=O)cc1 the IC50 (Estrogen receptor) was > 50 µM (not active).
In the case of CC1CCc2sc3ncnc(N4CCOCC4)c3c2C1 (stereo not given), the EC50 [7] is reported as 8.76 µM (active), the EC50 (HEK293 [8]) is reported as 6.02 µM (active) and the IC50 (HEK293 [9]) is reported as 4.85 µM (active). For the same compound, the IC50 (HEK293 [10]) was > 20 µM (inactive), the IC50 (HEK293 [11]) was 3.54 µM (active) and the IC50 (HEK293 [12]) was > 20 µM (inactive).
For COc1ccccc1CN1C[C@@H]2N[C@H](C1)[C@@H]2c1ccc(-c2ccc(C#N)cc2)cc1, the AC50 [13] was 1.68 µM (active), the AC50 [14] was 13.7 µM (active) and the AC50 [15] was 7.43 µM (active). For the same compound, the AC50 [16] was 2.8 µM (active), the AC50 [17] was 2.36 µM (active) and the AC50 [18] was 2.39 µM (active).

Source: ChEMBL document CHEMBL1201862, “PubChem BioAssay data set” (2004)
